From patent publication US20160031909A1, “PORPHYRAZINE OPTICAL AND DUAL OPTICAL/ MR CONTRAST AND THERAPEUTIC AGENTS” (HOFFMAN/BARRETT, LLC, priority 2013, published 2016)
“Also recorded” adds a separate entry of the source. Read-outs that look alike come from different tables or passages of the source.

Key:
[1] = Octanol-water partition coefficients by ICP-MS; assay type: physicochemical; conditions: 1:1 water:1-octanol, 48 hours, Gd by ICP-MS
Method: Octanol-water partition coefficients (log P) were measured by ICP-MS to determine the hydrophilicity of the Pz-Gd(III) conjugates (4d, 18). The hydrophilicity of a molecule dictates cellular permeability where a balance in amphiphilicity is desired for ease of aqueous administration and maximum cellular uptake (19). Cu-Pz-Gd(III) is slightly more hydrophobic than Zn-Pz-Gd(III) and both conjugates are more hydrophobic than DOTA-Gd(III).
DOTA-Gd(I I I), Zn-Pz-Gd(III), and Cu-Pz-Gd(III) (0.5 mg) were dissolved in 1 mL of a 1:1 mixture of water:1-octanol, respectively. After shaking for 30 seconds, these tubes were placed on a rotator for gentle mixing to equilibrate for 48 hours. Gd(III) concentration in each layer was determined by ICP-MS. Partition coefficients were calculated from the equation log P=log(Co/Cw), where log P is the logarithm of the partition coefficient, Co is the concentration of Gd in the 1-octanol layer, and Cw is the concentration of Gd in the water layer.

[2] = test system: MDA-MB-231 orthotopic breast tumor; assay: In vivo tumor MRI in orthotopic breast tumor model; set-up: species or system athymic nude mice; conditions: 0-225 min after tail vein injection; Cu-Pz-Gd(III) 450 nmol (50 mg/kg), DOTA-Gd(III) 900 nmol (25 mg/kg)
Method: Cu-Pz-Gd(III) was examined as a contrast agent in vivo in an orthotopic breast tumor model in athymic nude mice. MDA-MB-231 breast tumor cells expressing mCherry fluorescent protein were implanted in the mammary fat pad of mice and tumors were allowed to grow to about 5 mm in diameter at which time mice were treated with 450 nmol (50 mg/kg) Cu-Pz-Gd(III) together with saline treated control mice (FIG. 3A).
In a separate experiment focusing only on short time points (0-225 min), groups of mice (n=3) were treated with Cu-Pz-Gd(III) (450 nmol, 50 mg/kg), DOTA-Gd(I I I) (900 nmol, 25 mg/kg), and saline as a negative control (FIG. 4). Mice were imaged continuously after tail vein injections. […] Regions of interest (ROIs) were defined outside the periphery of tumors, at the inner rim, and at the center.
MDA-MB-231 cells (1×10^6) expressing mCherry fluorescent protein were inoculated subcutaneously (1:1 v/v matrigel:PBS) on the right mammary fat pad. Cells were maintained in DMEM media supplemented with 10% FBS prior to inoculation. The athymic nude mice, Crl:NU(NCr)-Foxnl^nm, were purchased from Charles River, Portage at 5-6 weeks old and 16-18 gram were allowed to acclimate for 5 days. One week post inoculation, each animal was screened for mCherry fluorescence wavelength using the IVIS small animal fluorescence imaging system to verify presence of the tumor.
Mice were anesthetized in an induction chamber with 3% inhaled isoflurane in oxygen, then transferred to an imaging bed with circulating warm water heating system, MRI compatible respiratory monitoring (SA Instruments, Stony Brook, N.Y.) and 1-2% isoflurane delivered via nosecone to maintain a surgical plane of anesthesia with respiratory rate at 90-100 breaths/min Mice were imaged prone with the tumor centered in a 40 mm diameter quadrature volume coil (Bruker Biospec, Billerica, Mass.). An AutoPac automated positioning system was used to reproducibly center the animals in the MRI system.
Mice were positioned in the MRI scanner as described above and localizer images were acquired. T1 maps were acquired using a FAIR-RARE non-selective inversion recovery sequence with static TR (18,000 ms) and TE (6.1 ms), and variable TI (30.5, 100, 200, 300, 500, 600, 700, 800, 900, 1000, 1100, 1200, 1300, 1400, 1600, 2000, 2500, 3000, 3500, 4000, 4500, 5000, and 6000 ms). Imaging parameters were as follows: field of view (FOV)=40×20 mm^2, matrix size(MTX)=512×133 pixels, number of slices=1, slice thickness=1.0 mm, and 1 average (total scan time=5 m 26 s).
Images were acquired at baseline, and 4, 24, and 48 hours after injection of 150 μL of imaging agent via the tail vein. One control animal was injected with saline; the remaining 9 animals were injected with 450 nmol Cu-Pz-Gd(III). Three animals were sacrificed after 4 hour, 24 hour, and 48 hour timepoints, respectively; the organs were collected for ICP-MS (described below) to measure biodistribution.
Mice were positioned in the MRI scanner as described above and localizer images were acquired. To improve signal to noise ratio, reduce respiratory artifacts, and increase tumor coverage, for this study we used a multi slice T1 map acquired using a variable repetition time saturation recovery sequence (RARE-VTR) with static TE (8.2 ms) and variable TR (175, 300, 600, 800, 1200, 2000, 4000 ms). Imaging parameters were as follows: FOV=10×7.5 mm, MTX=80×60, number of axial slices=5, slice thickness=1.0 mm, and 1 average (total scan time=6 min 48 sec). […]

[3] = monomeric DOTA-Gd(III), shown for comparison (ref 17), cited from earlier work
[4] = Water solubility; assay type: physicochemical
Method: The pz platform is diol pz 285, which was prepared and activated for nucleophilic substitution by arenesulfonylation to produce bis-tosylate pz 286 as previously described (13). Subsequent nucleophilic substitution of pz 286 with excess sodium azide gave diazide pz 288, which was suitable for conjugation via cycloaddition reactions with the alkyne-functionalized Gd595. (Scheme 1). The use of catalytic copper(II) sulfate in this conjugation reaction partially metallates the pz core. To address this issue, pz 288 either was metallated with ZnCl2 prior to reaction with the alkyne or a stoichiometric amount of the […] catalyst was used to ensure that the pz core was completely cuprated. Standard cycloaddition reaction conditions were subsequently used to conjugate metallated pz diazides with Gd595 to produce Zn-Pz-Gd(III) and Cu-Pz-Gd(III) conjugates, which were isolated by preparative HPLC in 52% and 57% isolated yields, respectively. Trace amounts of Zn-Pz-Gd(III) were transmetallated to Cu-Pz-Gd(III), but this small amount was removed during purification.

[5] = Relaxation time measurements (longitudinal relaxivity r1); assay type: physicochemical; conditions: water, 1.41 T (60 MHz), 37° C.
Description: The efficiency of a contrast agent in reducing the longitudinal relaxation time of water protons is defined in terms as relaxivity (mM^−1 s^−1) (14). It has been predicted by Solomon-Bloembergen-Morgan theory that a slow molecule tumbling of an MRI agent causes an increase in rotational correlation time, Tr, which in turn results in increase in relaxivity (14, 15). A common approach to increase relaxivity by slowing down the molecular tumbling is to attach Gd(III) complexes to a macromolecule through rigid linkages (12,16). The relaxivity of the monomeric DOTA-Gd(III) (DOTA is 1,4,7,10-tetraazacyclododecane-N,N,N″,N″-tetraacetic acid) used in the clinic is shown for comparison (17). […] Both the Zn-Pz-Gd(III) and Cu-Pz-Gd(III) had higher longitudinal relaxivity than DOTAGd(III).
Solutions of M-Pz-Gd(III) (M=Zn, Cu) conjugates were dissolved in 500 μL of filtered, deionized H20 (18.2 MΩ·cm) for T1 acquisition. Relaxation times were measured on a Bruker mq60 NMRanalyzer equipped with Minispec v2.51 Rev.00/NT software (Bruker Biospin, Billerica, Mass., USA) operating at 1.41 T (60 MHz) and 37° C. T1 relaxation times were measured using an inversion recovery pulse sequence (T1—ir_mb) using the following parameters: 4 scans per point, 10 data points for fitting, mono-exponential curve fitting, phase cycling, 10 ms first pulse separation, and a recycle delay and final pulse separation≧5 T1. The gadolinium concentrations of each solution were determined using ICP-MS. The inverse of the longitudinal relaxation time (1/ T1, s^−1) was plotted against gadolinium concentration (mM) and fitted to a straight line with an R^2>0.99. The slope of the fitted line was recorded as the relaxivity, r1.

| Compound | log P [1] | tumor T1 over time [2] | Molecular r1 ([3]; 1 Gd(III)) [mM^−1 S^−1] | Ionic r1 [3] [mM^−1 S^−1] | water solubility [4] | Ionic r1 ([5]; per Gd(III)) [mM^−1 S^−1] | Molecular r1 ([5]; per molecule (2 Gd(III))) [mM^−1 S^−1] |
| --- | --- | --- | --- | --- | --- | --- | --- |
| O=C([O-])CN1CCN(CC(=O)[O-])CCN(CC(=O)O)CCN(CC(=O)[O-])CC1.[Gd+3] [DOTA-Gd(III), reference compound] | −3.42 | dips transiently but returns quickly to baseline; also recorded: enters the tumor, but is cleared relatively rapidly; also recorded: initial decrease in tumor T1 followed by recovery of signal | 3.1 | 3.1 |  |  |  |
| Zn[Pz(C17H27N5O7Gd)2]. Pz=18,21-bis(2-(1H-1,2,3-triazole-4-yl) ethoxy)-tris-[1,4-dioxino[g,l,q](2R,3R)-2,3-dimethoxy-2,3-dimethyll 25H,27H-benzo[b]porphyrazine; C17H27N5O7Gd=N-methyl-2-aminoacetamide-4,7,10-tris(carboxymethyl)-1,4,7,10-tetraazacyclododecylgadolinium(III)) [Zn-Pz-Gd(III)] | −3.13 |  |  |  | freely water soluble | 6.9 | 13.8 |
